Values of other authors, collected in US20040176378A1, “Compositions of a cyclooxygenase-2 selective inhibitor and an amphetamine for the treatment of reduced blood flow to the central nervous system” (Pharmacia Corporation, priority 2003, published 2004).

Assays:
[1] = test system: infarcted rats
[2] = test system: human stroke victims; settings: coupled with physical therapy, compared to stroke victims receiving only physical therapy

In the case of `CC(N)Cc1ccccc1` (centres unmarked) [amphetamine], the alternative circuit activation [1] is listed as “promoted alternative circuit activation” and the motor recovery [2] is listed as “accelerated motor recovery”.
